Reference: ChEMBL document CHEMBL4330153, “In Vivo Anti-inflammatory and Antiallergic Activity of Pure Naringenin, Naringenin Chalcone, and Quercetin in Mice” (2019)
Calls of active or inactive are those of the source. The rule behind the calls is not given here.

Tests used:
Mus musculus [1] = assay: Antiallergic activity in CD-1 mouse model of IgE/DNP-BSA-stimulated passive cutaneous anaphylaxis assessed as inhibition of vascular permeability at 5% administered topically immediately after sensitization by Evans blue extravasation assay; format: functional, organism-based
Mus musculus [2] = assay: Antiallergic activity in CD-1 mouse model of IgE/DNP-BSA-stimulated passive cutaneous anaphylaxis assessed as inhibition of vascular permeability at 0.1% administered topically immediately after sensitization by Evans blue extravasation assay; format: functional, organism-based
Mus musculus [3] = assay: Antiallergic activity in CD-1 mouse model of IgE/DNP-BSA-stimulated passive cutaneous anaphylaxis assessed as inhibition of vascular permeability at 1% administered topically immediately after sensitization by Evans blue extravasation assay relative to control; format: functional, organism-based
Mus musculus [4] = assay: (§1) Anti-inflammatory activity in tetradecanoylphorbol-13-acetate-induced CD-1 mouse ear edema model assessed as inhibition of ear edema thickness at 1% administered topically immediately after tetradecanoylphorbol-13-acetate treatment and measured 4 hrs post tetradecanoylphorbol-13-acetate treatment relative to control; format: functional
Mus musculus [5] = assay: Anti-inflammatory activity in arachidonic acid-induced CD-1 mouse ear edema model assessed as inhibition of ear edema thickness at 1% administered topically immediately after arachidonic acid treatment and measured 1 hr post arachidonic acid treatment relative to control; format: functional
Mus musculus [6] = assay: Antiallergic activity in CD-1 mouse model of IgE/DNP-BSA-stimulated passive cutaneous anaphylaxis assessed as inhibition of vascular permeability at 2% administered topically immediately after sensitization by Evans blue extravasation assay relative to control; format: functional
Mus musculus [7] = assay: Antiallergic activity in CD-1 mouse model of IgE/DNP-BSA-stimulated passive cutaneous anaphylaxis assessed as inhibition of vascular permeability at 0.2%, iv administered immediately after sensitization by Evans blue extravasation assay; format: functional, organism-based
Mus musculus [8] = assay: Antiallergic activity in CD-1 mouse model of IgE/DNP-BSA-stimulated passive cutaneous anaphylaxis assessed as inhibition of vascular permeability at 4% administered topically as oil-in-water emulsion immediately after sensitization by Evans blue extravasation assay relative to control; format: functional, organism-based
Mus musculus [9] = assay: Antiallergic activity in CD-1 mouse model of IgE/DNP-BSA-stimulated passive cutaneous anaphylaxis assessed as inhibition of vascular permeability at 0.02%, iv administered immediately after sensitization by Evans blue extravasation assay relative to control; format: functional
Mus musculus [10] = assay: Anti-inflammatory activity in arachidonic acid-induced CD-1 mouse ear edema model assessed as inhibition of ear edema thickness at 2% administered topically immediately after arachidonic acid treatment and measured 1 hr post arachidonic acid treatment relative to control; format: functional
Mus musculus [11] = assay: Antiallergic activity in mouse model of picryl-chloride-induced […] allergy at 0.8 mg/kg, po for 5 days relative to control; format: functional
Mus musculus [12] = assay: Antiallergic activity in mouse model of IgE/DNP-BSA-stimulated passive cutaneous anaphylaxis at 5 mg/kg, ip administered as single dose relative to control; format: functional
Mus musculus [13] = assay: Anti-inflammatory activity in tetradecanoylphorbol-13-acetate-induced CD-1 mouse ear edema model assessed as inhibition of ear edema thickness administered topically immediately after tetradecanoylphorbol-13-acetate treatment and measured 4 hrs post tetradecanoylphorbol-13-acetate treatment; format: functional, organism-based
Mus musculus [14] = assay: as §1, with “2%” for “1%”; format: functional
Mus musculus [15] = assay: as §1, with “0.5%” for “1%”; format: functional
Mus musculus [16] = assay: Anti-inflammatory activity in arachidonic acid-induced CD-1 mouse ear edema model assessed as inhibition of ear edema thickness administered topically immediately after arachidonic acid treatment and measured 1 hr post arachidonic acid treatment; format: functional, organism-based
Mus musculus [17] = assay: Anti-inflammatory activity in arachidonic acid-induced CD-1 mouse ear edema model assessed as inhibition of ear edema thickness at 1.3% administered topically immediately after arachidonic acid treatment and measured 1 hr post arachidonic acid treatment; format: functional, organism-based
Mus musculus [18] = assay: Anti-inflammatory activity in tetradecanoylphorbol-13-acetate-induced CD-1 mouse ear edema model assessed as inhibition of ear edema thickness at 1.3% administered topically immediately after tetradecanoylphorbol-13-acetate treatment and measured 4 hrs post tetradecanoylphorbol-13-acetate treatment; format: functional, organism-based

Compound: CC(c1cc2ccccc2s1)N(O)C(N)=O (centres undefined)
- inhibition (Mus musculus [1]): Active

Compound: CCC(=O)O[C@]1(C(=O)COC(C)=O)CC[C@H]2[C@@H]3C[C@H](C)C4=CC(=O)C=C[C@]4(C)[C@H]3[C@@H](O)C[C@@]21C
- inhibition (Mus musculus [2]): Active

Compound: CN(C)CCC(c1ccc(Cl)cc1)c1ccccn1 (centres undefined)
- inhibition (Mus musculus [3]): Active

Compound: O=C(O)Cc1ccccc1Nc1c(Cl)cccc1Cl
- inhibition (Mus musculus [4]): Active
- inhibition (Mus musculus [5]): Active

Compound: O=C(O)c1cc(=O)c2c(OCC(O)COc3cccc4oc(C(=O)O)cc(=O)c34)cccc2o1
- inhibition (Mus musculus [6]): inactive
- inhibition (Mus musculus [7]): Active
- inhibition (Mus musculus [8]): inactive

Compound: O=C(/C=C/c1ccc(O)cc1)c1c(O)cc(O)cc1O [4,2',4',6'-TETRAHYDROXYCHALCONE]
- inhibition (INH) (Mus musculus [4]): 27%
- inhibition (INH) (Mus musculus [6]): 55%
- inhibition (INH) (Mus musculus [9]): 68%
- inhibition (INH) (Mus musculus [10]): 42%
- Activity (Mus musculus [11]): 47%

Compound: O=C1C[C@@H](c2ccc(O)cc2)Oc2cc(O)cc(O)c21 [NARINGENIN]
- inhibition (INH) (Mus musculus [4]): 56%
- Activity (Mus musculus [12]): 70%
- inhibition (INH) (Mus musculus [6]): 42%
- inhibition (Mus musculus [13]): Dose-dependent effect
- inhibition (INH) (Mus musculus [9]): 56%
- inhibition (INH) (Mus musculus [14]): 62%
- inhibition (INH) (Mus musculus [15]): 32%
- inhibition (Mus musculus [16]): Dose-dependent effect
- inhibition (INH) (Mus musculus [5]): 22%
- inhibition (INH) (Mus musculus [10]): 56%
- Activity (Mus musculus [11]): 15%

Compound: O=c1c(O)c(-c2ccc(O)c(O)c2)oc2cc(O)cc(O)c12 [QUERCETIN]
- inhibition (INH) (Mus musculus [6]): 34%
- inhibition (Mus musculus [17]): inactive
- inhibition (INH) (Mus musculus [9]): 80%
- inhibition (Mus musculus [18]): Active
- Activity (Mus musculus [11]): 15%
